Test results reported in patent publication US20180282275A1, “New alkynyl-substituted 3-phenylpyrrolidine-2,4-diones and use thereof as herbicides” (Bayer CropScience Aktiengesellschaft, priority 2015, published 2018).

Tests used:
Format in all cases: in vivo
Alopecurus myosuroides [1] = assay: Pre-emergence herbicidal effect, greenhouse pot test; details: 504 h, 320 g a.i./ha, visual score after 3 weeks, 100% = plants have died, 0% = like control, read-out: Herbicidal effect against [%] ALOMY
From the text: (§1) Seeds of monocotyledonous and dicotyledonous weed plants and crop plants are laid out in wood-fibre pots in sandy loam and covered with soil. The compounds according to the invention formulated in the form of wettable powders (WP) or as emulsion concentrates (EC) are then applied as aqueous suspension or emulsion at a water application rate of 600 to 800 l/ha (converted) with the addition of 0.2% wetting agent to the surface of the covering soil. After the treatment, the pots are placed in a greenhouse and kept under good growth conditions for the trial plants. The damage to the test plants is scored visually after a test period of 3 weeks by comparison with untreated controls (herbicidal activity in percent (%): 100% activity=the plants have died, 0% activity=like control plants). [table]

Cyperus esculentus = assay: as above; details: 320 g a.i./ha, visual score after 3 weeks, 100% = plants have died, 0% = like control
From the text: as §1

Echinochloa crus-galli [2] = assay: as above; details: 504 h, 320 g a.i./ha, visual score after 3 weeks, 100% = plants have died, 0% = like control, read-out: Herbicidal effect against [%] ECHCG
From the text: as §1

Hordeum murinum [3] = assay: as above; details: 320 g a.i./ha, visual score after 3 weeks, 100% = plants have died, 0% = like control
From the text: as §1

Lolium rigidium [4] = assay: as above; details: 320 g a.i./ha, visual score after 3 weeks, 100% = plants have died, 0% = like control
From the text: as §1

Setaria viridis [5] = assay: as above; details: 504 h, 320 g a.i./ha, visual score after 3 weeks, 100% = plants have died, 0% = like control, read-out: Herbicidal effect against [%] SETVI
From the text: as §1

Alopecurus myosuroides [6] = assay: Post-emergence herbicidal effect, greenhouse pot test; details: 504 h, 80 g a.i./ha, one-leaf stage, visual score after about 3 weeks, 100% = plants have died, read-out: Herbicidal effect against [%] ALOMY
Description: (§2) [table] Seeds of monocotyledonous and dicotyledonous weed and crop plants are laid out in sandy loam in wood-fibre pots, covered with soil and cultivated in a greenhouse under good growth conditions. 2 to 3 weeks after sowing, the test plants are treated at the one-leaf stage. The compounds according to the invention, formulated in the form of wettable powders (WP) or as emulsion concentrates (EC), are then sprayed as aqueous suspension or emulsion at a water application rate of 600 to 800 l/ha (converted) with the addition of 0.2% of wetting agent onto the green parts of the plants. After the test plants have been left to stand in the greenhouse under optimal growth conditions for about 3 weeks, the action of the preparations is assessed visually in comparison to untreated controls (herbicidal action in percent (%): 100% activity=the plants have died, 0% activity=like control plants).

Avena fatua [7] = assay: as above; details: 80 g a.i./ha, one-leaf stage, visual score after about 3 weeks, 100% = plants have died
Description: as §2

Echinochloa crus-galli [8] = assay: as above; details: 504 h, 80 g a.i./ha, one-leaf stage, visual score after about 3 weeks, 100% = plants have died, read-out: Herbicidal effect against [%] ECHCG
Description: as §2

Hordeum murinum [9] = assay: as above; details: 80 g a.i./ha, one-leaf stage, visual score after about 3 weeks, 100% = plants have died
Description: as §2

Lolium rigidium [10] = assay: as above; details: 80 g a.i./ha, one-leaf stage, visual score after about 3 weeks, 100% = plants have died
Description: as §2

Setaria viridis [11] = assay: as above; details: 504 h, 80 g a.i./ha, one-leaf stage, visual score after about 3 weeks, 100% = plants have died, read-out: Herbicidal effect against [%] SETVI
Description: as §2

Stellaria media = assay: as above; details: 80 g a.i./ha, one-leaf stage, visual score after about 3 weeks, 100% = plants have died
Description: as §2

Avena fatua [12] = assay: Pre-emergence herbicidal effect, greenhouse pot test; details: 504 h, 320 g a.i./ha, visual score after 3 weeks, 100% = plants have died, 0% = like control, read-out: Herbicidal effect against [%] AVEFA
From the text: as §1

| Structure (SMILES) | pest or weed control at 320 g/ha (Alopecurus myosuroides [1]) [%] | Herbicidal effect against [%] CYPES (Cyperus esculentus) [%] | pest or weed control at 320 g/ha (Echinochloa crus-galli [2]) [%] | Herbicidal effect against [%] HORMU (Hordeum murinum [3]) [%] | Herbicidal effect against [%] LOLRI (Lolium rigidium [4]) [%] | pest or weed control at 320 g/ha (Setaria viridis [5]) [%] | pest or weed control at 80 g/ha (Alopecurus myosuroides [6]) [%] | Herbicidal effect against [%] AVEFA (Avena fatua [7]) [%] | pest or weed control at 80 g/ha (Echinochloa crus-galli [8]) [%] | Herbicidal effect against [%] HORMU (Hordeum murinum [9]) [%] | Herbicidal effect against [%] LOLRI (Lolium rigidium [10]) [%] | pest or weed control at 80 g/ha (Setaria viridis [11]) [%] | Herbicidal effect against [%] STEME (Stellaria media) [%] | pest or weed control at 320 g/ha (Avena fatua [12]) [%] |
| --- | --- | --- | --- | --- | --- | --- | --- | --- | --- | --- | --- | --- | --- | --- |
| CC#Cc1cc(C)c(C2=C(O)C3(CCC(OCC)CC3)NC2=O)c(C)c1 (centres unmarked) [Example D6] | 80 to 100 | 100 | 80 to 100 | 100 | 100 | 80 to 100 | 80 to 100 | 100 | 80 to 100 | 100 | 100 | 80 to 100 | 90 |  |
| CC#Cc1cc(C)c(C2=C(O)C3(CCC(OCC)CC3)NC2=O)c(C)c1 (centres unmarked) [Example D7] |  |  |  | 100 | 100 |  |  | 100 |  | 60 | 100 |  | 20 |  |
| CC#Cc1cc(C)c(C2=C(OC(=O)OCC)C3(CCC(OCC)CC3)NC2=O)c(CC)c1 (centres unmarked) [Example P10] | 80 to 100 |  | 80 to 100 | 90 | 100 | 80 to 100 | 80 to 100 | 90 | 80 to 100 | 100 | 100 | 80 to 100 | 10 | 80 to 100 |
| CC#Cc1cc(C)c(C2=C(O)C3(CCC(OCC)CC3)NC2=O)c(C)c1 (centres unmarked) [Example S3] |  | 80 |  | 100 | 100 |  |  | 100 |  | 100 | 100 |  | 100 |  |
| CC#Cc1cc(C)c(C2=C(OC(=O)OCC)C3(CCC(OCC)CC3)NC2=O)c(C)c1 (single isomer, unassigned) [Example P6] |  | 90 |  | 90 | 100 |  |  | 90 |  | 80 | 100 |  | 20 |  |
| CC#Cc1cc(C)c(C2=C(OC(=O)OCC)C3(CCC(OCC)CC3)NC2=O)c(CC)c1 (centres unmarked) [Example P9] |  | 60 |  | 100 | 100 |  |  | 100 |  | 100 | 100 |  | 40 |  |
| CC#Cc1cc(C)c(C2=C(O)C3(CCC(OCC)CC3)NC2=O)c(CC)c1 (centres unmarked) [Example S4] |  | 60 |  | 100 | 100 |  |  | 100 |  | 100 | 100 |  | 10 |  |
| CC#Cc1cc(C)c(C2=C(OC(=O)OCC)C3(CCC(OCC)CC3)NC2=O)c(C)c1 (single isomer, unassigned) [Example P5] | 80 to 100 | 100 | 80 to 100 | 100 | 100 | 80 to 100 | 80 to 100 | 100 | 80 to 100 | 100 | 100 | 80 to 100 | 100 | 80 to 100 |
| CC#Cc1cc(C)c(C2=C(OC(=O)C(C)C)C3(CCC(OCC)CC3)NC2=O)c(C)c1 (centres unmarked) [Example P8] | 80 to 100 | 100 | 80 to 100 | 100 | 100 | 80 to 100 | 80 to 100 | 100 | 80 to 100 | 100 | 100 | 80 to 100 | 60 | 80 to 100 |
| CC#Cc1cc(C)c(C2=C(O)C3(CCC(OCC)CC3)NC2=O)c(CC)c1 (centres unmarked) [Example D4] | 80 to 100 | 70 | 80 to 100 | 100 | 100 | 80 to 100 | 80 to 100 | 100 | 80 to 100 | 100 | 100 | 80 to 100 | 10 | 80 to 100 |
| CC#Cc1cc(C)c(C2=C(OC(=O)OC)C3(CCC(OCC)CC3)NC2=O)c(C)c1 (centres unmarked) [Example P7] | 80 to 100 | 100 | 80 to 100 | 100 | 100 | 80 to 100 | 80 to 100 | 100 | 80 to 100 | 100 | 100 | 80 to 100 | 100 | 80 to 100 |
